Results taken from publication PMC12931196, “Vm–MSI: a Vancomycin–Antimicrobial Peptide Conjugate Combating Resistant Bacteria and Broadening the Antimicrobial Spectrum” (Advanced Science, 2025).
Values after ≈ are worked out from the molar mass of the structure shown. Values joined by “and” are separate entries in the source; they are usually repeats but may differ in a detail not shown here. Equal entries are not always repeated.

Key:
[1] = system: 29 bacterial strains (11 Gram‐positive, 18 Gram‐negative); assay: GM of the MICs across the 29 bacterial strains; assay type: cell-based; settings: read-out: GM: Geometric mean of the MICs across the 29 bacterial strains
Experimental: (§1) The 2 fold broth microdilution method was performed following previously established protocols.^[ [65], [66] ^] A total of 29 strains of human pathogenic microorganisms (11 Gram‐positive and 18 Gram‐negative) were included in the assay. Standard strains were maintained in our laboratory, and clinical isolates were obtained from the Fourth Affiliated Hospital of Soochow University. […] Gradient dilutions of the drugs (vancomycin, AMPs, and vancomycin‐AMP conjugates) were prepared in 96‐well plates, with 50 µL of each drug solution added per well. For the vancomycin and AMP mixture, 25 µL of vancomycin was combined with 25 µL of AMP at the corresponding monomer gradient concentration, resulting in a total volume of 50 µL. […] Following incubation, bacterial growth was assessed by measuring absorbance at 600 nm. The MIC was defined as the lowest concentration at which no bacterial growth was detected.

[2] = system: S. aureus CMCC26003; assay: microbe, parasite or virus in culture; settings: Staphylococcus aureus, CMCC26003, 18 h
[3] = system: VRSA 52 biofilms; settings: 8 µM, 4 h, SYTO9/PI CLSM
[4] = system: biofilm‐resident bacteria, including VRSA, E. coli, and MDR P. aeruginosa; assay: Biofilm resident bacteria assay; settings: 1-8 µM, 24 h
[5] = system: ompR, csgA, csgD, mlrA, and rcsB expression in E. coli ATCC25922; assay: qPCR analysis of biofilm‐related genes; settings: 8 µM, 48 h static; qPCR ΔΔCt
[6] = system: E. faecalis 2; assay: microbe, parasite or virus in culture; settings: Enterococcus faecalis, 2, 18 h
[7] = system: E. coli ATCC25922 biofilms; settings: 8 µM, 4 h, SYTO9/PI CLSM
[8] = system: E. faecalis ATCC29212; assay: microbe, parasite or virus in culture; settings: Enterococcus faecalis, ATCC29212, 18 h
[9] = system: VRSA 52 and E. coli ATCC25922; assay: ROS fluorescent probe assay (DCFH‐DA); assay type: cell-based; settings: DCFH‐DA 10 µM, 1 h
Experimental: In accordance with the experimental methods described in previous literature,^[ [42] ^] […] The DCFH‐DA probe (Sigma‐Aldrich, US) was then added at a final concentration of 10 µM, and the mixture was incubated for 30 min at 37 °C, protected from light. After incubation, the samples were centrifuged to remove residual DCFH‐DA. The stained bacterial solution was transferred to a 96‐well black plate and mixed with varying concentrations of drugs (vancomycin, MSI‐78, and Vm‐MSI). Polymyxin B was used as a positive control, while PBS buffer served as a negative control. The plates were incubated at 37 °C for 1 h, protected from light. Finally, fluorescence was recorded using a Tecan Infinite M1000 PRO microplate reader (Tecan, Switzerland) with an excitation wavelength of 488 nm and an emission wavelength of 525 nm.

[10] = system: A. baumannii ATCC19606; assay: microbe, parasite or virus in culture; settings: Acinetobacter baumannii, ATCC19606, 18 h
[11] = system: P. aeruginosa CMCC10104; assay: MIC, 2 fold broth microdilution; assay type: cell-based; settings: Pseudomonas aeruginosa, MH broth, 37 °C, 18 h, OD600, read-out: MIC
Experimental: as §1

[12] = system: B. cereus CMCC63301; assay: MIC, 2 fold broth microdilution; assay type: cell-based; settings: Bacillus cereus, MH broth, 37 °C, 18 h, OD600, read-out: MIC
Experimental: as §1

[13] = system: V. parahemolyticus ATCC17802; assay: MIC, 2 fold broth microdilution; assay type: cell-based; settings: MH broth, 37 °C, 18 h, OD600, read-out: MIC
Experimental: as §1

[14] = system: P. aeruginosa 60357; assay: MIC, 2 fold broth microdilution; assay type: cell-based; settings: Pseudomonas aeruginosa, MH broth, 37 °C, 18 h, OD600, read-out: MIC
Experimental: as §1

[15] = system: S. typhimurium CICC21483; assay: MIC, 2 fold broth microdilution; assay type: cell-based; settings: Salmonella enterica, MH broth, 37 °C, 18 h, OD600, read-out: MIC
Experimental: as §1

[16] = system: P. aeruginosa 52097; assay: MIC, 2 fold broth microdilution; assay type: cell-based; settings: Pseudomonas aeruginosa, MH broth, 37 °C, 18 h, OD600, read-out: MIC
Experimental: as §1

[17] = system: S. flexneri ATCC12022; assay: MIC, 2 fold broth microdilution; assay type: cell-based; settings: Shigella flexneri, MH broth, 37 °C, 18 h, OD600, read-out: MIC
Experimental: as §1

[18] = system: S. flexneri CMCC51571; assay: MIC, 2 fold broth microdilution; assay type: cell-based; settings: Shigella flexneri, MH broth, 37 °C, 18 h, OD600, read-out: MIC
Experimental: as §1

[19] = system: S. aureus ATCC29213; assay: microbe, parasite or virus in culture; settings: Staphylococcus aureus, ATCC29213, 18 h
[20] = system: VRSA 11; assay: microbe, parasite or virus in culture; settings: Staphylococcus aureus, 18 h

With `CN[C@H](CC(C)C)C(=O)N[C@H]1C(=O)N[C@@H](CC(N)=O)C(=O)N[C@H]2C(=O)N[C@H]3C(=O)N[C@H](C(=O)N[C@H](C(=O)O)c4cc(O)cc(O)c4-c4cc3ccc4O)[C@H](O)c3ccc(c(Cl)c3)Oc3cc2cc(c3O[C@@H]2O[C@H](CO)[C@@H](O)[C@H](O)[C@H]2O[C@H]2C[C@](C)(N)[C@H](O)[C@H](C)O2)Oc2ccc(cc2Cl)[C@H]1O` [Vm, vancomycin] the MIC [1] was 55.1 µM (≈ 79.8 µg/mL), the MIC [2] was 0.4 µM and 0.59 µg/mL and the “killing in the surface layer of the biofilm (dead cells)” value [3] was 25%. The “biofilm‐resident bactericidal effect” value [4] was “no significant biofilm‐resident bactericidal effect”, the “csgA expression relative to control” value [5] was 0.8 and the “csgD expression relative to control” value [5] was 0.6. The “rcsB up‐regulation relative to control” value [5] was 1.5 fold, the MIC [6] was greater than 67.3 µM and the “killing at the bottom of the biofilm” value [7] was 20%. The “killing at the surface of the biofilm” value [7] was 60%, the MIC [8] was > 67.3 µM and > 100 µg/mL and the “intracellular ROS production” value [9] was “did not induce ROS production”. The MIC [10] was > 67.3 µM and > 100 µg/mL, the MIC [11] was greater than 67.3 µM and the MIC [12] was 50.5 µM (≈ 73.2 µg/mL). For the same compound, the MIC [13] was 50.5 µM (≈ 73.2 µg/mL), the MIC [14] was greater than 67.3 µM and the MIC [15] was greater than 67.3 µM. It also gave an MIC [16] greater than 67.3 µM, an MIC [17] of 50.5 µM (≈ 73.2 µg/mL) and an MIC [18] greater than 67.3 µM. For the same compound, the MIC [19] was 3.16 µM and 4.69 µg/mL and the MIC [20] was > 67.3 µM and > 100 µg/mL.
